# In PMC3618660 (Journal of medicinal chemistry, 2013):
# Columns and labels:
# mu opioid receptor (MOR) = mu opioid receptor (MOR) (Rattus norvegicus, UniProt P33535); experiment: [3H]diprenorphine competitive displacement binding, C6-MOR membranes
# [1] = molecular target: delta opioid receptor (DOR) (Rattus norvegicus, UniProt P33533); experiment: antagonism of DPDPE-stimulated GTPγS binding at DOR; type: biochemical
# C57BL/6 mice = experiment: mouse warm water tail withdrawal; type: in vivo
# Sequence of delta opioid receptor (DOR) (P33533 whole entry): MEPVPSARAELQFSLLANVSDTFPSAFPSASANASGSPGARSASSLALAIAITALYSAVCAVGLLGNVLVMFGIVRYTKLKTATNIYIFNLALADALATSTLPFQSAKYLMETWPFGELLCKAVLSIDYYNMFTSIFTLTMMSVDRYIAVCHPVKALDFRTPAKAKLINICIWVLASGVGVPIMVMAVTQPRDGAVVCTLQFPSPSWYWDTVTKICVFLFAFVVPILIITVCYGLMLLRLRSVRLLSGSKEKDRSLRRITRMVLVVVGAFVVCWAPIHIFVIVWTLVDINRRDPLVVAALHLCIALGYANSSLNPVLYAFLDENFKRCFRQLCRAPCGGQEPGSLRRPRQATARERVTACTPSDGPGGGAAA
# Sequence of mu opioid receptor (MOR) (P33535 whole entry): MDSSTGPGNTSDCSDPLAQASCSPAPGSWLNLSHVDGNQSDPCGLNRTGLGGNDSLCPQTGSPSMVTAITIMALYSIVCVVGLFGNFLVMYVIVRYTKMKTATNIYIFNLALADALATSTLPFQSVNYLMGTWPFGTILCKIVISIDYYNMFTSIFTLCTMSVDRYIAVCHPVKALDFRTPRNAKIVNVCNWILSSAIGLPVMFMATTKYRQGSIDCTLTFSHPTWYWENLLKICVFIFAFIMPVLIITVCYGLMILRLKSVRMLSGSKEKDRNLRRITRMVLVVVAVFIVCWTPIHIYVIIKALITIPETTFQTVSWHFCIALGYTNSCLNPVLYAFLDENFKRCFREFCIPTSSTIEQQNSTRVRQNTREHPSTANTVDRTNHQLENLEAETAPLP
smiles,measurement,setting,value
"Cc1cc(O)cc(C)c1C[C@H](N)C(=O)N[C@@H]1CCNc2ccc(Cc3cccc4ccccc34)cc21 [Compound 15b, (2S)-2-Amino-3-(4-hydroxy-2,6-dimethylphenyl)-N-(6-(naphthalen-1-ylmethyl)-1,2,3,4-tetrahydroquinolin-4-yl)propanamide]",Ki,mu opioid receptor (MOR),0.00076 ± 0.00014 µM
"Cc1cc(O)cc(C)c1C[C@H](N)C(=O)NC1CCNc2ccc(Cc3ccc4ccccc4c3)cc21 (stereo partly drawn) [Compound 15c, (2S)-2-Amino-3-(4-hydroxy-2,6-dimethylphenyl)-N-(6-(naphthalen-2-ylmethyl)-1,2,3,4-tetrahydroquinolin-4-yl)propanamide]",Kb,[1],0.0343 µM
Cc1cc(O)cc(C)c1C[C@H](N)C(=O)N[C@@H]1CCNc2ccc(Cc3ccccc3)cc21 [1 (4R)],ED50,"C57BL/6 mice; Mus musculus, ip, read-out: ED50, tail withdrawal latency",~6 µmol/kg
same,antinociceptive potency compared with morphine,C57BL/6 mice; mouse WWTW after intraperitoneal administration,approximately equipotent to morphine
same,time maximal antinociception is maintained,"C57BL/6 mice; mouse WWTW time course, 10 mg/kg ip",approximately 60 minutes
same,effect of naltrexone pretreatment on dose/response curve,"C57BL/6 mice; naltrexone 1mg/kg ip, 30 min pretreatment, mouse WWTW",rightward shift
